What was measured:
[1] = stability of rifampin and minocycline in PBS with and without tranexamic acid (Example 14); assay type: physicochemical
[2] = in vitro elution of rifampin and minocycline from p22-27.5 polymers with TXA in release media (Example 15); assay type: physicochemical; details: PBS pH 7.4 without or with TXA (0.05 mg/mL, 5 mg/mL) in the release media, over 25 hours
myofibroblast formation = details: Ajmal et al. (2003); cited from earlier work
blood [3] = experiment: time to induce blood clotting in vitro, different hemostatic agents (Example 18); assay type: biochemical; details: 1.2 mg of TXA alone
Procedure: Tests were conducted to compare the time required for different hemostatic agents to induce blood clotting in vitro versus the time required to induce blood clotting in vitro when no hemostatic agent is administered. In particular, the time required to induce blood clotting was plotted for blood alone, TYRX, Surgicel, TYRX with 1.6 mg of TXA, 1.2 mg of TXA alone, and TYRX with 200 mg of TXA. In this example, TYRX refers to a Glycoprene mesh that is coated with P22-27.5 (a polymer in the P22-X family) containing Rifampin and Minocycline.

blood [4] = experiment: time to induce blood clotting in vitro in the presence of TYRX (Example 17); assay type: biochemical; set-up: dose or concentration left out as unconfirmed; details: higher amounts of TXA
Procedure: Tests were conducted to compare the time required to induce blood clotting in vitro when different amounts of hemostatic agent is administered in the presence of TYRX (degradable mesh coated with P22-27.5 containing rifampin and minocycline), as shown in FIG. 24.

[5] = time to reach plasma concentrations; assay type: in vivo; details: given preoperatively

CO[C@H]1/C=C/O[C@@]2(C)Oc3c(C)c(O)c4c(O)c(c(/C=N/N5CCN(C)CC5)c(O)c4c3C2=O)NC(=O)/C(C)=C\C=C\[C@H](C)[C@H](O)[C@@H](C)[C@@H](O)[C@@H](C)[C@H](OC(C)=O)[C@@H]1C [rifampin]
percentage area of rifampin, mixtures with versus without tranexamic acid ([1]; rifampin and minocycline in PBS, regardless of the temperature (RT or 37° C.)): substantially the same
elution rate from p22-27.5 polymers [2]: not affected

O=S(=O)([O-])CCS.[Na+] [MESNA, sodium 2-mercaptoethane sulfonate]
myofibroblast formation (myofibroblast formation): diminish myofibroblast formation

NC[C@H]1CC[C@H](C(=O)O)CC1 [tranexamic acid]
time to induce blood clotting in vitro (blood [3]): about 19 minutes
clotting time (blood [4]): increased
effect on the stability of rifampin and minocycline ([1]; PBS, RT and 37° C.): does not negatively affect
time to reach plasma concentrations [5]: 5 to 15 min

— patent US12447242B2, “Hemostatic devices and methods of use” (MEDTRONIC INC., priority 2016, dated 2025)
